The target of one data set is T1, S100P-RAGE interaction (Homo sapiens, UniProt P25815).
T1 construct: His tag (N); made in house; host or cells: Escherichia coli BL21*
T1 sequence (P25815 1-95): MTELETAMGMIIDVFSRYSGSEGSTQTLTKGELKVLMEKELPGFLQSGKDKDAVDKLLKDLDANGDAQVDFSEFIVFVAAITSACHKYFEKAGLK
As to the kind of experiment: ELISA of S100P-RAGE binding inhibition. The following applies: for ELISA inhibition: concentration with significant inhibition of S100P-RAGE binding, asterisks = significance by one-way ANOVA. As for the experimental part: The purchased computational screening hits were subjected to initial biological testing for inhibition of S100P-RAGE binding (ELISA), with cromolyn as positive control, using an adaptation of the reported ELISA for S100 family members.
Fig. 2 Effects of compounds 1–14 on S100P binding to RAGE. Human S100P (2 μM) coated wells were incubated with increasing concentrations of the compound tested, in triplicate, and exposed to human RAGE-Fc (100 nM) followed by goat anti-human secondary antibody to detect RAGE bound S100P. Data are compared to S100P/RAGE binding with no inhibitor (DMSO, 100%) and are presented as mean ± SEM; data is significant by one way ANOVA, where ∗ = p < 0.05, ∗∗ = p < 0.01 and ∗∗∗ = p < 0.001; n = 9 from 3 plates.
To generate human S100P recombinant protein, a pQE-30 ([…]) plasmid encoding S100P with N-terminal histidine tags (gifted by Dr Igor Barsukov, Liverpool University, UK), was transformed into BL21∗ competent Escherichia coli cells. Recombinant protein was purified using a HisTrap Nickel-nitrilotriacetic acid (Ni-NTA) agarose column (GE Healthcare, UK).
Purified recombinant S100P (2μM/well) in phosphate buffer (PBS; 137 mM NaCl, 2.7 mM KCl, 10 mM Na2HPO4, 1.8 mM KH2PO4, pH 7.4; supplemented with 1 mM CaCl2, 10 μM ZnCl2, and 0.5 mM MgCl2) was used for coating a 96 well plate (NunclonDelta, Fisher), and incubated overnight at 37 °C.
Following washing, S100P non-specific binding sites were blocked with 1% bovine serum albumin (BSA; Fisher, UK) in PBS for 2 h at 37 °C. Following three washes, S100P was incubated with increasing concentrations of compounds, in parallel to cromolyn and DMSO treated wells, all in triplicate. Then 30 nM recombinant human receptor for advanced glycation end products (rh/RAGE-Fc; R&D Systems) was added and incubated for 1 h at 37 °C. Controls included a negative control (S100P protein, no RAGE-Fc), a positive control (S100P protein plus RAGE), and vehicle control (0.001% DMSO in PBS) were included in each plate. After three washes in PBS, all wells were exposed to goat anti-human HRP conjugate (1:1000; Millipore) for 1 h at 37 °C in order to detect bound receptors. Subsequent to washes, wells were incubated for 20 min in the dark with 3,3′,5,5′-tetramethylbenzidene (TMB) substrate (Sigma, UK). Plates were read at 450 nm using a Multiskan Ascent spectrophotometer (Fisher Scientific, UK). All sample readings were normalized to the positive control (S100P plus RAGE-Fc). Statistical analysis was performed and graphs plotted using the GraphPad Prism software in the following way: One Way ANOVA was used to compare the effects of concentration of each compound to the effects of vehicle control (DMSO), and p values of <0.05 were considered statistically significant. A post hoc analysis was conducted using Dunnetts multiple comparisons test; results are indicated by ∗ = p < 0.05; ∗∗ = p < 0.01 and ∗∗∗ = p < 0.001.
(In general: An ELISA detects its analyte on a solid surface through an enzyme-linked reagent.)

The mark [1] stands for this setting: Table 1, ELISA, human S100P 2 μM coated wells, human RAGE-Fc, read-out: Estimated IC50.

The values below come from PMC7501730, “Discovery of novel small molecule inhibitors of S100P with in vitro anti-metastatic effects on pancreatic cancer cells” (European Journal of Medicinal Chemistry, 2020).

Molecules are shown by their SMILES. pIC50: −log10 of the molar value. Read-outs that look alike come from different tables or passages of the source. Some results are limits rather than exact numbers.

In the case of `CC(C)(C)c1ccc(N2C(=O)C3C4c5ccccc5C([N+](=O)[O-])(c5ccccc54)C3C2=O)cc1` (centres unmarked) [Compound 4l, 13-(4-(tert-butyl)phenyl)-9-nitro-9,10-dihydro-9,10-[3,4]epipyrroloanthracene-12,14-dione], on S100P-RAGE interaction (Table 2), the ELISA inhibition entry is “- (no significant inhibition below 1 μM)”.
Regarding `O=C1C2C3c4ccccc4C(c4ccccc43)C2C(=O)N1c1cccc(F)c1` (centres unmarked) [Compound 4o, 13-(3-fluorophenyl)-9,10-dihydro-9,10-[3,4]epipyrroloanthracene-12,14-dione], the melting point lay in the range of 228 to 230 °C. In addition, the “concentration with significant inhibition of S100P-RAGE binding” value at S100P-RAGE interaction (ELISA) was not above 100 nM. At S100P-RAGE interaction (Table 2, ELISA, analog series of hit 4, read-out: Estimated IC50), the pIC50 is 8.89. The ELISA inhibition on S100P-RAGE interaction (Table 2) is 10 nM∗.
Take `O=C(O)c1cccc(N2C(=O)C3C4c5ccccc5C(c5ccccc54)C3C2=O)c1` (centres unmarked) [Compound 4m, 3-(12,14-Dioxo-9,10-dihydro-9,10-[3,4]epipyrroloanthracen-13-yl)benzoic acid]: the ELISA inhibition entry at S100P-RAGE interaction (Table 2) is recorded as “– (no significant inhibition below 1 μM)”.
Consider `O=C1C2C3c4ccccc4C(c4ccccc43)C2C(=O)N1c1ccc(Cl)cc1` (centres unmarked) [Compound 4v, 13-(4-chlorophenyl)-9,10-dihydro-9,10-[3,4]epipyrroloanthracene-12,14-dione], for which the ELISA inhibition result on S100P-RAGE interaction (Table 2) is recorded as “– (no significant inhibition below 1 μM)”.
Take `O=C1C2C3c4ccccc4C(c4ccccc43)C2C(=O)N1c1ccc(I)cc1` (centres unmarked) [Compound 4x, 13-(4-iodophenyl)-9,10-dihydro-9,10-[3,4]epipyrroloanthracene-12,14-dione]: on S100P-RAGE interaction (Table 2), the ELISA inhibition entry was “– (no significant inhibition below 1 μM)”.
Regarding `O=C1C2C3c4ccccc4C([N+](=O)[O-])(c4ccccc43)C2C(=O)N1c1cccc(Cl)c1` (centres unmarked) [Compound 4c, 13-(3-chlorophenyl)-9-nitro-9,10-dihydro-9,10-[3,4]epipyrroloanthracene-12,14-dione], at S100P-RAGE interaction (Table 2), the ELISA inhibition result is on record as “– (no significant inhibition below 1 μM)”.
Turning to `CC(C)(C)c1ccc(N2C(=O)C3C4c5ccccc5C(c5ccccc54)C3C2=O)cc1` (centres unmarked) [Compound 4y, 13-(4-(tert-butyl)phenyl)-9,10-dihydro-9,10-[3,4]epipyrroloanthracene-12,14-dione], the ELISA inhibition result at S100P-RAGE interaction (Table 2) is recorded as “- (no significant inhibition below 1 μM)”.
As to `O=C1C2C3c4ccccc4C(c4ccccc43)C2C(=O)N1c1ccc([N+](=O)[O-])cc1` (centres unmarked) [Compound 4w, 13-(4-nitrophenyl)-9,10-dihydro-9,10-[3,4]epipyrroloanthracene-12,14-dione], the ELISA inhibition result on S100P-RAGE interaction (Table 2) is listed as “– (no significant inhibition below 1 μM)”.
As to `N#CCCn1cc(C(=O)Nc2ccc(C(=O)O)cc2)c(-c2ccccc2)n1` [Compound 5], on S100P-RAGE interaction (setting [1]), the pIC50 was 9.22.
As for `O=C1C2C3c4ccccc4C([N+](=O)[O-])(c4ccccc43)C2C(=O)N1c1ccc([N+](=O)[O-])cc1` (centres unmarked) [Compound 4j, 9-Nitro-13-(4-nitrophenyl)-9,10-dihydro-9,10-[3,4]epipyrroloanthracene-12,14-dione], the ELISA inhibition result at S100P-RAGE interaction (Table 2) was “– (no significant inhibition below 1 μM)”.
In the case of `O=C1C2C3c4ccccc4C([N+](=O)[O-])(c4ccccc43)C2C(=O)N1c1cccc([N+](=O)[O-])c1` (centres unmarked) [Compound 4d, 9-Nitro-13-(3-nitrophenyl)-9,10-dihydro-9,10-[3,4]epipyrroloanthracene-12,14-dione], at S100P-RAGE interaction (Table 2), the ELISA inhibition entry is “– (no significant inhibition below 1 μM)”.
For the molecule `Cc1ccc(-c2ccc(=O)n(CC(=O)Nc3ccc(-n4cnnn4)cc3)n2)cc1` [Compound 6], the negative logarithm of the IC50 (pIC50) at S100P-RAGE interaction (setting [1]) was 9.26.
Take `Nc1nnn(CC(=O)N/N=C/c2cccs2)n1` [Compound 9]: the negative logarithm of the IC50 (pIC50) at S100P-RAGE interaction (setting [1]) is 8.11.
Regarding `CCCN1CCc2c(sc3c2c(NCCc2ccccc2)nc2nnnn23)C1` [Compound 14], the pIC50 on S100P-RAGE interaction (setting [1]) is 7.11.
On to `O=C(O)CCNC(=O)Cn1nnc2ccccc2c1=O` [Compound 11], for which the pIC50 on S100P-RAGE interaction (setting [1]) is 8.16.
Take `O=C1C2C3c4ccccc4C([N+](=O)[O-])(c4ccccc43)C2C(=O)N1c1ccc(I)cc1` (centres unmarked) [Compound 4k, 13-(4-iodophenyl)-9-nitro-9,10-dihydro-9,10-[3,4]epipyrroloanthracene-12,14-dione]: the ELISA inhibition result at S100P-RAGE interaction (Table 2) is recorded as “– (no significant inhibition below 1 μM)”.
For the molecule `O=C1C2C3c4ccccc4C([N+](=O)[O-])(c4ccccc43)C2C(=O)N1c1ccccc1` (centres unmarked) [Compound 4e, 9-Nitro-13-phenyl-9,10-dihydro-9,10-[3,4]epipyrroloanthracene-12,14-dione], the ELISA inhibition result on S100P-RAGE interaction (Table 2) is given as “– (no significant inhibition below 1 μM)”.
Turning to `O=C1C2C3c4ccccc4C(c4ccccc43)C2C(=O)N1c1cccc([N+](=O)[O-])c1` (centres unmarked) [Compound 4q, 13-(3-nitrophenyl)-9,10-dihydro-9,10-[3,4]epipyrroloanthracene-12,14-dione], the ELISA inhibition entry at S100P-RAGE interaction (Table 2) is recorded as “– (no significant inhibition below 1 μM)”.
Take `CCOC(=O)c1cccc(N2C(=O)C3C4c5ccccc5C(c5ccccc54)C3C2=O)c1` (centres unmarked) [Compound 4n, Ethyl 3-(12,14-dioxo-9,10-dihydro-9,10-[3,4]epipyrroloanthracen-13-yl)benzoate]: the ELISA inhibition entry at S100P-RAGE interaction (Table 2) is “– (no significant inhibition below 1 μM)”.
Still for that read-out and setting: next, `O=C(O)c1ccc(N2C(=O)C3C4c5ccccc5C(c5ccccc54)C3C2=O)cc1` (centres unmarked) [Compound 4s, 4-(12,14-Dioxo-9,10-dihydro-9,10-[3,4]epipyrroloanthracen-13-yl)benzoic acid]: “– (no significant inhibition below 1 μM)”; `O=C1C2C3c4ccccc4C([N+](=O)[O-])(c4ccccc43)C2C(=O)N1c1ccc(F)cc1` (centres unmarked) [Compound 4h, 13-(4-fluorophenyl)-9-nitro-9,10-dihydro-9,10-[3,4]epipyrroloanthracene-12,14-dione]: “– (no significant inhibition below 1 μM)”.
With `COc1ccc(-c2noc(CCCC(=O)O)n2)cc1` [Compound 12], the pIC50 on S100P-RAGE interaction (setting [1]) is 6.58.
As for `COc1ccc(/C=C2/C(=O)NC(=O)N(c3ccc(Cl)c(Cl)c3)C2=O)cc1C(=O)O` [Compound 3], the pIC50 at S100P-RAGE interaction is 9.29.
As to `Cc1nc2sc3c(c2c2nc(C(=O)NCCOCCO)nn12)C[C@@H](C)CC3` [Compound 13], at S100P-RAGE interaction (setting [1]), the pIC50 is 6.90.
Take `O=C(O)CNC(=O)CCCn1c(=O)[nH]c2ccccc2c1=O` [Compound 10]: on S100P-RAGE interaction (setting [1]), the pIC50 was 7.37.
Take `O=C1C2C3c4ccccc4C(c4ccccc43)C2C(=O)N1c1cccc(Cl)c1` (centres unmarked) [Compound 4p, 13-(3-chlorophenyl)-9,10-dihydro-9,10-[3,4]epipyrroloanthracene-12,14-dione]: the ELISA inhibition result at S100P-RAGE interaction (Table 2) is reported as “– (no significant inhibition below 1 μM)”.
The same measure, in the same setting: next, `CCOC(=O)c1ccc(N2C(=O)C3C4c5ccccc5C(c5ccccc54)C3C2=O)cc1` (centres unmarked) [Compound 4t, Ethyl 4-(12,14-dioxo-9,10-dihydro-9,10-[3,4]epipyrroloanthracen-13-yl)benzoate]: “– (no significant inhibition below 1 μM)”.
Consider `O=C(Cc1cc(O)n[nH]1)N/N=C/c1c(Cl)cccc1Cl` [Compound 7], for which the negative logarithm of the IC50 (pIC50) at S100P-RAGE interaction (setting [1]) was 7.72.
Take `O=C1C2C3c4ccccc4C([N+](=O)[O-])(c4ccccc43)C2C(=O)N1c1ccc(Cl)cc1` (centres unmarked) [Compound 4i, 13-(4-chlorophenyl)-9-nitro-9,10-dihydro-9,10-[3,4]epipyrroloanthracene-12,14-dione]: the ELISA inhibition result on S100P-RAGE interaction (Table 2) is given as “– (no significant inhibition below 1 μM)”.

A word on the melting point: it is the temperature, or range, at which the solid turns liquid. Usually pIC50 stands for the IC50 on a negative log10 scale, so that one unit is a factor of ten.
